Results reported in patent US20140221340A1 (KYOWA HAKKO KIRIN CO., LTD., priority 2011, published 2014).

target: T1, human CCR10 (Homo sapiens, UniProt P46092); experiment: Calcium assay of human CCR10 (inhibition of CTACK-induced increase in intracellular calcium ion concentration in hCCR10G16 cells); type: cell-based; conditions: test compound 100 nmol/L; human recombinant CTACK; hCCR10G16 cells (KJMGER8/Namalwa-derived, Gα16 co-expressed); FLIPR or FDSS; read-out: Inhibitory rate (%) for an increase in calcium ion concentration
T1 construct: expressed in transfected cells; host or cells: KJMGER8 cell (cell line derived from Namalwa cell); expression induced with 10 nmol/L β-estradiol
T1 sequence (P46092 1-362): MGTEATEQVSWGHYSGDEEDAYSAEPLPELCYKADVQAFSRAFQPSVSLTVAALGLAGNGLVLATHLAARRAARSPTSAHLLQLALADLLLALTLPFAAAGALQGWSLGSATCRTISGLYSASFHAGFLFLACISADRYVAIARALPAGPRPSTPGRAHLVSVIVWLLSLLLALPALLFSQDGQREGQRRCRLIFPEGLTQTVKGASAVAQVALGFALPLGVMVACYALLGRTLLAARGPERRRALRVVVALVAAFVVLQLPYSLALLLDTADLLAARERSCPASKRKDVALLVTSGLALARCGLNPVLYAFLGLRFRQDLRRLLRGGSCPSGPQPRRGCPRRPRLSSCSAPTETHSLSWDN
Description: A CCR10-inducible expression plasmid was produced according to a known method (“Analytical Biochemistry”, 2006, vol. 400, page 163). A DNA encoding human CCR10 was obtained by PCR. Using human chromosomal DNA (100 ng; manufactured by Clontech Laboratories, Inc.) as a template, a synthetic DNA having the sequences shown by SEQ ID NOs: 1 and 2 as a human CCR10 cDNA specific primer, and Pyrobest DNA Polymerase (manufactured by TAKARA SHUZO CO. LTD.) as an enzyme, a DNA encoding human CCR10 was obtained by PCR. As a buffer solution for PCR, the buffer solution attached to the enzyme was diluted 10-fold with deionized water and used. Using Thermal Cycler DNA Engine (manufactured by MJ Research), PCR was performed by 35 cycles of reactions composed of an incubation at 90° C. for 2 min, at 94° C. for 30 seconds, at an anneal temperature of 58° C. for 30 seconds, and at 72° C. for 1 min.
The amplified PCR fragment was cleaved with HindIII and NotI, then a human CCR10 DNA fragment was recovered by an agarose gel electrophoresis method. The fragment was incorporated in between the corresponding restriction enzyme sites (HindIII-NotI) of an inducible expression vector, whereby a human CCR10-inducible expression plasmid were prepared.
Using a primer specific to the sequence of the plasmid (synthetic DNA having the sequences shown by SEQ ID NOs: 3 and 4), the sequence of human CCR10 DNA region was determined. For the determination of the base sequence, DNA sequencer 377 (manufactured by PerkinElmer) and a reaction kit (ABI Prism (registered trade mark) BigDye (registered trade mark) Terminator Cycle Sequencing Ready Reaction kit: manufactured by Applied Biosystems) were used. The sequence of human CCR10 DNA matched with the sequence (NM_016602) registered in GenBank.
Cells for the detection of the signal from human CCR10 by a calcium assay were prepared. Human CCR10-inducible expressing cells whose host cell is KJMGER8 cell (cell line derived from Namalwa cell) were prepared according to a known method (“Analy Biochem”, 2006, vol. 400, page 163). Human CCR10-inducible expression plasmid produced above and Gα16 expression plasmid were co-transfected into KJMGER8 cell by an electroporation method (“Cytotechnology”, 1990, vol. 3, page 133), whereby a signal from human CCR10 could be detected by a calcium assay (hereinafter to be referred to as hCCR10G16 cell). Gα16 expression plasmid was produced by incorporating human Gα16 DNA into expression vector pAMoh (WO03/087366). Induced expression of human CCR10 was performed by cultivating hCCR10G16 cells in the presence of 10 nmol/L β-estradiol (manufactured by Sigma Ltd.) for 24 hr.
Cells expressing human CCR10 induced by the above-mentioned method were suspended in RPMI1640 medium and adjusted to cell density of 1.25×10^6 cells/mL. This mixture was dispensed to a 384 well clear bottom plate (manufactured by Corning Incorporated) at 20 μL/well, and these were incubated at 37° C. for several dozen minutes. A loading buffer prepared according to the protocol attached to FLIPR Calcium 3 assay kit (manufactured by Molecular Device) was dispensed to this plate at 20 μL/well, and the plate was incubated at 37° C. for 60 min. A 33 μmol/L DMSO solution of the test compound was diluted 37-fold with RPMI1640 medium and the resulting solution was added at 5 μL/well, and the mixture was incubated at 37° C. for 30 min. 300 nmol/L human recombinant CTACK (manufactured by R and D Systems) diluted with RPMI1640 medium containing 1 w/v % bovine serum albumin was added at 5 μL/well. Change of the intracellular calcium ion concentration for about 5 min after the addition was measured by FLIPR (manufactured by Molecular Device) or FDSS (manufactured by Hamamatsu Photonics K.K.). The difference between the maximum fluorescence intensity and the minimum fluorescence intensity for 5 min was calculated, and taken as the measurement value (maximum fluorescence intensity−minimum fluorescence intensity). […]

Row | SMILES | inhibition at 0.1 µM [%]
1 | O=C(NC1CC1)NS(=O)(=O)c1cnn2c(Nc3ccc(F)cc3Cl)c(C(=O)N3CCC(c4ccc(F)cc4)CC3)cnc12 [a-21, 7-(2-Chloro-4-fluorophenylamino)-N-(cyclopropylcarbamoyl)-6-[4-(4-fluorophenyl)piperidine-1-carbonyl]pyrazolo[1,5-a]pyrimidine-3-sulfonamide] | > 100
2 | CCC(=O)NS(=O)(=O)c1cnn2c(Nc3cc(Cl)ccc3Cl)c(C(=O)N3CCC(c4ccc(F)cc4)CC3)cnc12 [a-22, N-{7-(2,5-Dichlorophenylamino)-6-[4-(4-fluorophenyl)piperidine-1-carbonyl]pyrazolo[1,5-a]pyrimidin-3-ylsulfonyl}propionamide] | > 100
3 | CCNC(=O)NS(=O)(=O)c1cnn2c(Nc3cc(Cl)ccc3Cl)c(C(=O)N3CCC(c4ccc(F)cc4)CC3)cnc12 [a-23, 7-(2,5-Dichlorophenylamino)-N-(ethylcarbamoyl)-6-[4-(4-fluorophenyl)piperidine-1-carbonyl]pyrazolo[1,5-a]pyrimidine-3-sulfonamide] | 96.7
4 | CC(=O)NS(=O)(=O)c1cnn2c(Nc3cc(Cl)ccc3Cl)c(C(=O)N3CCC(c4ccc(F)cc4)CC3)cnc12 [a-24, N-{7-(2,5-Dichlorophenylamino)-6-[4-(4-fluorophenyl)piperidine-1-carbonyl]pyrazolo[1,5-a]pyrimidin-3-ylsulfonyl}acetamide] | > 100
5 | CC1(C(=O)NS(=O)(=O)c2cnn3c(Nc4cc(Cl)ccc4Cl)c(C(=O)N4CCC(c5ccc(F)cc5)CC4)cnc23)COC1 [a-25, N-{7-(2,5-Dichlorophenylamino)-6-[4-(4-fluorophenyl)piperidine-1-carbonyl]pyrazolo[1,5-a]pyrimidin-3-ylsulfonyl}-3-methyloxetane-3-carboxamide] | > 100
6 | O=CNS(=O)(=O)c1cnn2c(Nc3cc(Cl)ccc3Cl)c(C(=O)N3CCC(c4ccc(F)cc4)CC3)cnc12 [a-26, N-{7-(2,5-Dichlorophenylamino)-6-[4-(4-fluorophenyl)piperidine-1-carbonyl]pyrazolo[1,5-a]pyrimidin-3-ylsulfonyl}formamide] | > 100
7 | CONS(=O)(=O)c1cnn2c(Nc3cc(Cl)ccc3Cl)c(C(=O)N3CCC(c4ccc(F)cc4)CC3)cnc12 [a-27, 7-(2,5-Dichlorophenylamino)-6-[4-(4-fluorophenyl)piperidine-1-carbonyl]-N-methoxypyrazolo[1,5-a]pyrimidine-3-sulfonamide] | > 100
8 | CCONS(=O)(=O)c1cnn2c(Nc3cc(Cl)ccc3Cl)c(C(=O)N3CCC(c4ccc(F)cc4)CC3)cnc12 [a-28, 7-(2,5-Dichlorophenylamino)-N-ethoxy-6-[4-(4-fluorophenyl)piperidine-1-carbonyl]-pyrazolo[1,5-a]pyrimidine-3-sulfonamide] | > 100
9 | CCC(=O)NS(=O)(=O)c1cnn2c(Nc3cc(C(F)(F)F)ccc3Cl)c(C(=O)N3CCC(c4ccc(F)cc4)CC3)cnc12 [a-29, N-{7-(2-Chloro-5-trifluoromethylphenylamino)-6-[4-(4-fluorophenyl)piperidine-1-carbonyl]pyrazolo[1,5-a]pyrimidin-3-ylsulfonyl}propionamide] | > 100
10 | CCNC(=O)NS(=O)(=O)c1cnn2c(Nc3cc(F)ccc3Cl)c(C(=O)N3CCC(c4ccc(F)cc4)CC3)cnc12 [a-30, 7-(2-Chloro-5-fluorophenylamino)-N-(ethylcarbamoyl)-6-[4-(4-fluorophenyl)piperidine-1-carbonyl]pyrazolo[1,5-a]pyrimidine-3-sulfonamide] | > 100
11 | CCC(=O)NS(=O)(=O)c1cnn2c(Nc3cc(C)ccc3F)c(C(=O)N3CCC(c4ccc(F)cc4)CC3)cnc12 [a-31, N-{7-(2-Fluoro-5-methylphenylamino)-6-[4-(4-fluorophenyl)piperidine-1-carbonyl]pyrazolo[1,5-a]pyrimidin-3-ylsulfonyl}propionamide] | > 100
12 | Cc1ccc(F)c(Nc2c(C(=O)N3CCC(c4ccc(F)cc4)CC3)cnc3c(S(=O)(=O)NC(=O)NC4CC4)cnn23)c1 [a-32, 7-(2-Fluoro-5-methylphenylamino)-N-(cyclopropylcarbamoyl)-6-[4-(4-fluorophenyl)piperidine-1-carbonyl]pyrazolo[1,5-a]pyrimidine-3-sulfonamide] | > 100
13 | CC(=O)NS(=O)(=O)c1cnn2c(Nc3cc(Cl)ccc3F)c(C(=O)N3CCC(c4ccc(F)cc4)CC3)cnc12 [a-33, N-{7-(5-Chloro-2-fluorophenylamino)-6-[4-(4-fluorophenyl)piperidine-1-carbonyl]pyrazolo[1,5-a]pyrimidin-3-ylsulfonyl}acetamide] | > 100
14 | CCNC(=O)NS(=O)(=O)c1cnn2c(Nc3cc(Cl)ccc3F)c(C(=O)N3CCC(c4ccc(F)cc4)CC3)cnc12 [a-34, 7-(5-Chloro-2-fluorophenylamino)-N-(ethylcarbamoyl)-6-[4-(4-fluorophenyl)piperidine-1-carbonyl]pyrazolo[1,5-a]pyrimidine-3-sulfonamide] | > 100
15 | CC(=O)NS(=O)(=O)c1cnn2c(Nc3cc(F)ccc3F)c(C(=O)N3CCC(c4ccc(F)cc4)CC3)cnc12 [a-35, N-{7-(2,5-Difluorophenylamino)-6-[4-(4-fluorophenyl)piperidine-1-carbonyl]pyrazolo[1,5-a]pyrimidin-3-ylsulfonyl}acetamide] | > 100
16 | CCC(=O)NS(=O)(=O)c1cnn2c(Nc3cc(F)ccc3F)c(C(=O)N3CCC(c4ccc(F)cc4)CC3)cnc12 [a-36, N-{7-(2,5-Difluorophenylamino)-6-[4-(4-fluorophenyl)piperidine-1-carbonyl]pyrazolo[1,5-a]pyrimidin-3-ylsulfonyl}propionamide] | > 100
17 | Cc1ccc(Cl)c(Nc2c(C(=O)N3CCC(c4ccc(F)cc4)CC3)cnc3c(S(=O)(=O)NC(=O)NC4CC4(F)F)cnn23)c1 (stereo not shown) [a-37, 7-(2-Chloro-5-methylphenylamino)-N-(2,2-difluorocyclopropylcarbamoyl)-6-[4-(4-fluorophenyl)piperidine-1-carbonyl]pyrazolo[1,5-a]pyrimidine-3-sulfonamide] | > 100
18 | CC(=O)NS(=O)(=O)c1cnn2c(Nc3cccc(Cl)c3Cl)c(C(=O)N3CCC(c4ccc(F)cc4)CC3)cnc12 [a-38, N-{7-(2,3-Dichlorophenylamino)-6-[4-(4-fluorophenyl)piperidine-1-carbonyl]pyrazolo[1,5-a]pyrimidin-3-ylsulfonyl}acetamide] | > 100
19 | CCNC(=O)NS(=O)(=O)c1cnn2c(Nc3ccc(Cl)c(Cl)c3)c(C(=O)N3CCC(c4ccc(F)cc4)CC3)cnc12 [a-39, 7-(3,4-Dichlorophenylamino)-N-(ethylcarbamoyl)-6-[4-(4-fluorophenyl)piperidine-1-carbonyl]pyrazolo[1,5-a]pyrimidine-3-sulfonamide] | > 100
